Test results reported in patent US7307145B2, “Sodium-independent transporter transporting small-sized neutral amino acid, gene thereof and method of analyzing transporter function by constructing fused proteins enabling the specification of the function” (Japan Science and Technology Agency, priority 2001, dated 2007).

T1: Asc-2-rBAT (Mus musculus, UniProt Q8VIE6+Q91WV7)
T1 construct: expressed in transfected cells; host or cells: oocyte injected with cRNA
T1 sequence (Q8VIE6+Q91WV7 with tags, fused parts or gaps): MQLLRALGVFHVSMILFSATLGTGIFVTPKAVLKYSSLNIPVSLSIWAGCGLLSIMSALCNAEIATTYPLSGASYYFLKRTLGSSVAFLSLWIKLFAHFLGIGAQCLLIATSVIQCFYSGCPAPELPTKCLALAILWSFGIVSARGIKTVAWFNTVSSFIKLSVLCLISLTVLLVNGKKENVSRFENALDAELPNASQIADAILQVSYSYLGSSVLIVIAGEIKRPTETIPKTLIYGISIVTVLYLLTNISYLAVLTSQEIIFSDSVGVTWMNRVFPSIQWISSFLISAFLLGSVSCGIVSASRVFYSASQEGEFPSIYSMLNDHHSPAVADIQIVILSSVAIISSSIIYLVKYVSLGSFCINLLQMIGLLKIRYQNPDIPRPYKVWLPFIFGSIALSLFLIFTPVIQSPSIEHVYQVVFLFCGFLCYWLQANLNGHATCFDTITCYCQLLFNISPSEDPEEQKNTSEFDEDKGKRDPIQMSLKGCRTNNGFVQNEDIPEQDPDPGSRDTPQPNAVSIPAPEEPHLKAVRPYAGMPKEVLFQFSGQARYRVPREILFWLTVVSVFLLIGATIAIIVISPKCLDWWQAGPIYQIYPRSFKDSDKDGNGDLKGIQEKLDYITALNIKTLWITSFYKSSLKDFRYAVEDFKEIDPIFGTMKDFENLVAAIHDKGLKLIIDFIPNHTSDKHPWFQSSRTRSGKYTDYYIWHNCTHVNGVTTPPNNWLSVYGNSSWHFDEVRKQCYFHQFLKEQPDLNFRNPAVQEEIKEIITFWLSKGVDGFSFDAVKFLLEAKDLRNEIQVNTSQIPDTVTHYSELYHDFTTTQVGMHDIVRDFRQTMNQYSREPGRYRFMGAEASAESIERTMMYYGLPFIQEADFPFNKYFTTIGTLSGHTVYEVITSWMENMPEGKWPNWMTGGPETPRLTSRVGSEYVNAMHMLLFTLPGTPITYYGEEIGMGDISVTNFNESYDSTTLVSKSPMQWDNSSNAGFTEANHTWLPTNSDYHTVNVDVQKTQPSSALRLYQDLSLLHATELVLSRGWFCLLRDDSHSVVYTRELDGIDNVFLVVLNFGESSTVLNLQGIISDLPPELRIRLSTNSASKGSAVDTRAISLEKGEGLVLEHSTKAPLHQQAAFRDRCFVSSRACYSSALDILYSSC

B1: Asc-2-rBAT (Mus musculus) (protein)
chain: T1 sequence (Q8VIE6+Q91WV7 with tags, fused parts or gaps)
notes: expressed in transfected cells; host or cells: oocyte injected with cRNA

Experiments:
[1] = target: T1, Asc-2-rBAT; assay: Michaelis-Menten test of amino acid uptake by Xenopus oocytes injected with Asc-2-rBAT fusion protein cRNA; assay type: cell-based; details: Asc-2-rBAT expressed in oocyte; serine = 1.00; mean ± standard error, n=3
Procedure: (§1) A Michaelis-Menten pharmacodynamic test of a sodium-independent transporter Asc-2 transporting small-sized neutral amino acid was conducted. By investigating the change in the ratio of serine uptake by the difference in the substrate serine concentration, the Michaelis-Menten pharmacodynamic test of the Asc-2 was conducted.
(§2) The serine uptake test was conducted using the oocyte into which a cRNA of the gene of the fusion protein of the Asc-2 with the 4F2hc or the rBAT (Asc-2-4F2hc or Asc-2-rBAT) was injected in accordance with the method in Section (2) in Example 2 described above.
(§3) The Michaelis-Menten pharmacodynamic tests were conducted also for the amino acids, other than serine, which also serve as the substrates for the Asc-2, and the Km and Vmax values were calculated and are shown in the following Table 1.

[2] = target: T1, Asc-2-rBAT; assay: Inhibition test: 14C-serine uptake by oocytes expressing Asc-2-rBAT with added amino acids and analogues; assay type: cell-based; details: 14C-serine 5 μM; non-labeled compound 500 μM; Na+-free uptake solution
Procedure: In a serine uptake test in an oocyte into which a cRNA of the gene of the fusion protein of the Asc-2 with the rBAT (Asc-2-rBAT) was injected, the effect of amino acids and their analogues on the system was investigated.
The serine uptake test was conducted using the oocyte into which a cRNA of the gene of the fusion protein of the Asc-2 with the rBAT (Asc-2-rBAT) was injected in accordance with the method in Section (2) in Example 2 described above. Nevertheless, the test was conducted using as a sodium-free uptake solution (Na^+-free uptake solution), and the ^14C-serine (5 μM) uptake was measured in the presence or absence of various compounds (non-labeled) at 500 μM.

[3] = target: T1, Asc-2-rBAT; assay: Uptake test of radiolabeled amino acids and analogues as substrates by oocytes expressing Asc-2-rBAT; assay type: cell-based; details: Asc-2-rBAT oocyte; 14C compound as substrate
Procedure: Using various amino acids and their analogues as substrates, the uptake by an oocyte into which a cRNA of the gene of the fusion protein of the Asc-2 with the rBAT (Asc-2-rBAT) had been injected was investigated.
The uptake test of various amino acids and their analogues was conducted using the oocyte into which a cRNA of the gene of the fusion protein of the Asc-2 with the rBAT (Asc-2-rBAT) had been injected in accordance with the method in Section (2) in Example 2 described above. Nevertheless, the test was conducted using as a substrate various compounds which were radiolabeled instead of ^14C-serine.

[4] = test system: Asc-2 fusion protein with the 4F2hc or rBAT; assay: Transport of amino acids by Asc-2 expressed on the cell membrane as fusion protein with 4F2hc or rBAT (summary statement); assay type: cell-based, mouse; details: Asc-2 fused with 4F2hc or rBAT
Text: In addition, L-methionine, L-leucine, L-isoleucine, L-valine, L-phenylalanine, L-tyrosine, L-histidine, D-serine and D-alanine are also transported at a low affinity.

[5] = test system: T2, N[C@@H](CO)C(=O)O; assay: Michaelis-Menten test of serine uptake by Xenopus oocytes injected with Asc-2-4F2hc fusion protein cRNA; assay type: cell-based, mouse; details: other: Asc-2-4F2hc expressed in oocyte
T2 construct: expressed in transfected cells; host or cells: oocyte injected with cRNA
Procedure: as §1, §2

[6] = substrate: CC(C)C[C@H](N)C(=O)O; assay: Michaelis-Menten test of amino acid uptake by Xenopus oocytes injected with Asc-2-rBAT fusion protein cRNA; assay type: cell-based, mouse; details: other: Asc-2-rBAT expressed in oocyte; mean ± standard error, n=3
Procedure: as §1, §2, §3

[7] = substrate: N[C@@H](CS)C(=O)O; assay: as above; assay type: cell-based, mouse; details: other: Asc-2-rBAT expressed in oocyte; mean ± standard error, n=3
Procedure: as §1, §2, §3

[8] = substrate: N[C@@H](CO)C(=O)O; assay: as above; assay type: cell-based, mouse; details: other: Asc-2-rBAT expressed in oocyte; mean ± standard error, n=3
Procedure: as §1, §2, §3

[9] = substrate: CC(C)[C@H](N)C(=O)O; assay: as above; assay type: cell-based, mouse; details: other: Asc-2-rBAT expressed in oocyte; mean ± standard error, n=3
Procedure: as §1, §2, §3

[10] = substrate: C[C@@H](O)[C@H](N)C(=O)O; assay: cells, lysate or membranes; details: other: Asc-2-rBAT expressed in oocyte; mean ± standard error, n=3
[11] = substrate: C[C@H](N)C(=O)O; assay: cells, lysate or membranes; details: other: Asc-2-rBAT expressed in oocyte; mean ± standard error, n=3
[12] = substrate: NCC(=O)O; assay: cells, lysate or membranes; details: other: Asc-2-rBAT expressed in oocyte; mean ± standard error, n=3

Row | Molecule | Vmax (ratio to the Vmax of serine) [1] | Effect on Asc-2-rBAT-mediated 14C-serine uptake (cis-inhibition) [2] | Affinity of transport by Asc-2 fusion protein [4] | other results
1 | N[C@@H](CO)C(=O)O [L-Serine] | (1.00) | inhibited potently | high affinity | Uptake of radiolabeled compound into the oocyte [3]: substantial uptake
2 | NCC(=O)O [Glycine] | 1.18 ± 0.05 | inhibited potently | high affinity | Uptake of radiolabeled compound into the oocyte [3]: substantial uptake
3 | C[C@@H](O)[C@H](N)C(=O)O [L-Threonine] | 0.53 ± 0.06 | inhibited potently | high affinity | Uptake of radiolabeled compound into the oocyte [3]: substantial uptake
4 | N[C@@H](Cc1c[nH]cn1)C(=O)O [L-histidine] |  |  | low affinity | 
5 | N[C@@H](Cc1ccccc1)C(=O)O [L-phenylalanine] |  |  | low affinity | 
6 | CC(C)[C@H](N)C(=O)O [L-Valine] | 0.79 ± 0.22 |  | low affinity | 
7 | α-aminoisometylic acid |  | no effect |  | 
8 | CSCC[C@H](N)C(=O)O [L-methionine] |  |  | low affinity | 
9 | NCCCC(=O)O [γ-aminoisoyric acid] |  | no effect |  | 
10 | N[C@@H](CS)C(=O)O [L-Cysteine] | 0.19 ± 0.03 | inhibited potently | high affinity | 
11 | CC(C)C[C@H](N)C(=O)O [L-Leucine] | 1.17 ± 0.11 |  | low affinity | 
12 | N[C@H](CO)C(=O)O [D-serine] |  |  | low affinity | 
13 | N[C@@H](Cc1ccc(O)cc1)C(=O)O [L-tyrosine] |  |  | low affinity | 
14 | C[C@H](N)C(=O)O [L-Alanine] | 0.83 ± 0.08 | inhibited potently | high affinity | Uptake of radiolabeled compound into the oocyte [3]: substantial uptake
15 | Asc-2-4F2hc (Mus musculus) |  |  |  | Km [5]: 2.10 µM
16 | C[C@@H](N)C(=O)O [D-alanine] |  |  | low affinity | 
17 | NC1(C(=O)O)CC2CCC1C2 (centres unmarked) [BCH, 2-amino-2-norbornane-carboxylic acid] |  | no effect |  | 
18 | CC[C@H](C)[C@H](N)C(=O)O [L-isoleucine] |  |  | low affinity | 
19 | B1 |  |  |  | Km [6]: 39.6 ± 4.3 µM; Km [7]: 3.13 ± 0.57 µM; Km [8]: 2.88 ± 0.37 µM; Km [9]: 34.8 ± 10.6 µM; Km [10]: 2.72 ± 0.44 µM; Km [11]: 2.35 ± 0.30 µM; Km [12]: 2.15 ± 0.35 µM
